{
  "source": "patent US12551581B2",
  "about": "“Combination cancer immunotherapy with pentaaza macrocyclic ring complex” (Galera Labs, LLC, priority 2017, dated 2026)",
  "key": {"[1]": {"details": "lethal total body irradiation, adult mice; Thompson et al. 2010; cited from earlier work"}, "[2]": {"details": "rat collagen-induced arthritis; Salvemini et al. 2001; cited from earlier work"}, "[3]": {"details": "rats, experimental colitis; Cuzzocrea et al. 2001; cited from earlier work"}, "[4]": {"details": "rat model; Salvemini et al. 1999; cited from earlier work"}, "[5]": {"details": "hamster oral mucositis; Murphy et al. 2008; cited from earlier work"}, "[6]": {"details": "head-and-neck cancer patients undergoing chemoradiation therapy; Anderson 2015; cited from earlier work"}, "[7]": {"details": "rat model; Tuder et al. 2003; cited from earlier work"}, "[8]": {"system": "Colon 26 mouse colon cancer cell line tumors", "test": "Colon 26 syngeneic tumor model, GC4419 with anti-PD1", "assay_type": "in vivo, Balb/C mice", "details": "1 and 3 mg/kg bid ip GC4419 added to anti-PD1 5 mg/kg; versus anti-PD1 alone", "description": "GC4419 was administered in combination with the T-cell checkpoint inhibitor anti-PD-1 (RMP1-14) to female Balb/C mice implanted with the mouse colon cancer cell line, Colon 26 beginning on day 3 post-implantation. Tumors were allowed to grow for up to 52 days or until they exceeded 1000 mm3.\nTreatments with the antibody and GC4419 are described in Table 1.\nTumor volumes were assessed and median and mean values are shown in FIG. 1 (Median Tumor Volumes in Colon 26 Model) and 2 (Mean Tumor Volumes in Colon 26 Model)."}, "[9]": {"system": "4T1 tumors", "test": "4T1 tumor volume with GC4419 and/or radiation in immunocompetent mice", "assay_type": "in vivo, Balb/c mice", "description": "(§1) In separate studies, either syngeneic Balb/c mice or immunodeficient nu/nu mice were subcutaneously implanted with 4T1 cells to form a xenograft. On day 11 after transplant, animals were treated with GC4419 (24 mg/kg) and/or 15 Gy of 250 kVp X-rays, as described in Table 5 below.\n(§2) Tumor volume was tracked as a function of time, and Day 17 (the last common day of measurement between the two studies given the rapid growth of tumors in the nu/nu mice) mean tumor volumes are described in Table 6 below."}, "[10]": {"system": "LLC tumors", "test": "LLC abscopal study, GC4419 with radiation and anti-CTLA4, primary and secondary tumors", "assay_type": "in vivo, C57Bl/6 mice", "description": "Syngeneic animals (C57Bl/6 mice) were subcutaneously implanted with LLC cells in the right flank to form a xenograft (primary tumor). On day 2, the same animals were subcutaneously implanted with LLC cells in the left flank for form another xenograft (secondary tumor). On day 8, some animals began treatment with anti CTLA-4 antibodies (200 μg) as indicated below. On day 11, when both primary and secondary tumors were palpable, all animals were treated with GC4419 (24 mg/kg), 15 Gy of 250 kVp X-rays, and/or anti CTLA-4 antibodies (10 mg/kg), as described in Table 10 below. Tumor growth was tracked as a function of time for both primary and secondary tumors."}, "[11]": {"system": "4T1 tumors and lung metastases", "test": "4T1 metastatic breast cancer model, GC4419 with radiation and anti-CTLA4", "assay_type": "in vivo, mice (syngeneic)", "description": "Specifically, as shown in FIGS. 4A-4C, GC4419 decreases metastasis and enhances the efficacy of the combination of radiation and T-cell checkpoint inhibitor anti-CTLA4 (9D9) in the 4T1 metastatic breast cancer model. Syngeneic animals were subcutaneously implanted with 4T1 cells to form a xenograft. On day 12, when no lung metastasis is present, animals were treated with GC4419 (24 mg/kg), 15 Gy of 250 kVp X-rays, and/or anti CTLA-4 antibodies (10 mg/kg) or IgG control antibodies, as described in Table 3 below. Tumor growth was tracked as a function of time and at day 35 post implantation ([…]), animals were euthanized and lungs collected to count metastases."}, "[12]": {"system": "4T1 mouse breast cancer tumors", "test": "4T1 syngeneic tumor model, GC4419 with anti-CTLA-4, start day varied (Example 5)", "assay_type": "in vivo, Balb/C mice", "description": "GC4419 was administered in combination with the T-cell checkpoint inhibitor anti-CTLA-4 (9D9) to female Balb/C mice implanted subcutaneously with the mouse breast cancer cell line, 4T1. Tumors were allowed to grow for up to 45 days or until they exceeded 3000 mm^3 (or Group mean of 2000 mm^3).\nTreatments with the antibody and GC4419 are described in Table 7.\nTumor volumes were assessed and mean values are shown in FIG. 5A (Mean Tumor Volumes in 4T1 Model).\nFIG. 5B depicts such an improvement occurring for dosing of GC4419 that is delayed until day 13 after a start of anti-CTLA4 administration (i.e., after the 5th dose of anti-CTLA4). In comparison of arms treated with (a) combination of GC4419 with anti-CTLA4 treatment and (b) anti-CTLA4 treatment alone, no difference should be apparent between the two arms before addition of GC4419 treatment. As a result tumor control was assessed by normalizing the tumor growth curves of each arm with respect to the day on which treatment with GC4419 was started in the combination arm (i.e., day 13 in FIG. 5B)."}, "[13]": {"system": "Lewis lung carcinoma (LLC) tumors", "test": "Lewis lung carcinoma tumors, GC4419 plus ionizing radiation", "assay_type": "in vivo, C57.CL/6 mice", "description": "The effects of GC4419 plus IR on intratumoral levels of key immune cell populations were tested in Lewis lung carcinoma (LLC) tumors. In the study, 4 week old C57.CL/6 mice were injected with LLC cells to form tumors. At 13 days post-injection, animals were treated with GC4419 at doses of 3, 10 and 24 mg/kg and 15 Gy of 250 kVp X-rays. Tumor growth was tracked until tumor size exceeded 2 cm in any one direction. In addition, tumor infiltrating lymphocyte populations were assessed in separate animals via flow cytometry at various time points post IR (15 Gy) in combination with 10 mg/kg GC4419 treatment. Intratumoral populations of neutrophils, macrophages and activated cytotoxic T-cells were altered due to the presence of GC4419 either with or without ionizing radiation, as shown in FIG. 6B. However, it is unclear from this study alone whether these transient alterations in the immune cell populations caused by GC4419 contribute to improved results for the combination of GC4419 with checkpoint inhibitor therapy combined or in the absence of radiation therapy."}, "[14]": {"system": "4T1 mouse breast cancer tumors", "test": "4T1 syngeneic model, GC4419 with anti-CTLA-4, delayed/skip dosing (Example 6)", "assay_type": "in vivo, Balb/C mice", "description": "GC4419 was administered in combination with the T-cell checkpoint inhibitor anti-CTLA-4 (9D9) to female Balb/C mice implanted subcutaneously with the mouse breast cancer cell line, 4T1. Tumors were allowed to grow for up to 35 days or until they exceeded 3000 mm^3 (or Group mean of 2000 mm^3).\nTreatments with the antibody and GC4419 are described in Table 8.\nTumor volumes were assessed and mean values are shown in FIGS. 5C and 5D (Mean Tumor Volumes in 4T1 Model)."}, "[15]": {"system": "4T1 tumors", "test": "4T1 tumor volume with GC4419 and/or radiation in immunodeficient mice", "assay_type": "in vivo", "details": "nu/nu mice", "description": "as §1, §2"}},
  "note": "Read-outs that look alike come from different tables or passages of the source.",
  "data": [
    {"smiles": "[Cl-].[Cl-].[Mn+2].c1cc2nc(c1)CN[C@@H]1CCCC[C@H]1NCCN[C@@H]1CCCC[C@H]1NC2", "note": "[GC4403]", "values": [
      {"measurement": "radiation damage", "setting": "[1]", "result": "attenuate the radiation damage"},
      {"measurement": "joint disease", "setting": "[2]", "result": "prevent joint disease"},
      {"measurement": "injury to the colon", "setting": "[3]", "result": "very significantly reduce the injury to the colon"},
      {"measurement": "inflammation", "setting": "[4]", "result": "inhibit inflammation"},
      {"measurement": "radiation damage", "setting": "[5]", "result": "attenuate the radiation damage"}
    ]},
    {"smiles": "[Cl][Mn][Cl].c1cc2nc(c1)CN[C@H]1CCCC[C@@H]1NCCN[C@H]1CCCC[C@@H]1NC2", "note": "[GC4419]", "values": [
      {"measurement": "oral mucositis", "setting": "[6]", "result": "reduce oral mucositis"},
      {"measurement": "VEGFr inhibitor-induced pulmonary disease", "setting": "[7]", "result": "attenuate VEGFr inhibitor-induced pulmonary disease"},
      {"measurement": "tumor growth", "setting": "[8]", "result": "further decrease"},
      {"measurement": "V(x) / V(Group 3)", "setting": "[9]; Balb/c mice, Day 17 volume relative to RT alone group", "result": 1.25},
      {"measurement": "Day 17 Tumor Volume, V", "setting": "[9]; Balb/c mice, mean, GC4419 24 mg/kg D11-15, RT 15 Gy D11", "result": 1923, "unit": "mm^3"},
      {"measurement": "tumor growth", "setting": "[9]; Balb/c mice, radiation plus GC4419 versus radiation alone", "result": "further tumor growth reduction"},
      {"measurement": "increase in response to combined radiation and GC4419 treatment", "setting": "[9]; Balb/c versus nu/nu mice", "result": "greater in immunocompetent mice than in immunodeficient mice"},
      {"measurement": "sensitization of primary and secondary tumors to radiation (growth delay)", "setting": "[10]; GC4419 D11-15 with 15 Gy RT D11 to primary tumor", "result": "sensitized primary and secondary tumors to radiation"},
      {"measurement": "growth of secondary tumors (FIG. 8E)", "setting": "[10]; GC4419 added to anti CTLA-4 therapy and radiation therapy", "result": "slowed the growth of secondary tumors"},
      {"measurement": "sensitization of primary tumors to combination of anti CTLA-4 therapy and radiation therapy", "setting": "[10]; GC4419 added to anti-CTLA4 200 μg + 15 Gy RT", "result": "sensitized"},
      {"measurement": "sensitization of tumors to radiation (tumor volume, FIG. 4A)", "setting": "[11]; GC4419 24 mg/kg D12-16 with 15 Gy RT D12", "result": "sensitized 4T1 tumors to radiation regardless of GC4419 dose"},
      {"measurement": "efficacy of combination anti CTLA-4 therapy and radiation therapy (tumor volume, FIG. 4B)", "setting": "[11]; GC4419 24 mg/kg added to anti-CTLA4 10 mg/kg + 15 Gy RT", "result": "enhanced the efficacy of combination anti CTLA-4 therapy and radiation therapy"},
      {"measurement": "number of surface lung metastases (FIG. 4C)", "setting": "[11]; day 35 post implantation", "result": "significantly decreased the number of metastases"},
      {"measurement": "% Mice without Lung Metastases", "setting": "[11]; day 35 post implantation, GC4419 24 mg/kg, RT 15 Gy, anti-CTLA4 10 mg/kg", "result": 0, "unit": "%"},
      {"measurement": "tumor growth", "setting": "[12]; 3 mg/kg GC4419 QD x 21 added, started at least 3 days after antibody treatment", "result": "further decrease"},
      {"measurement": "normalized tumor growth (FIG. 5B)", "setting": "[12]; GC4419 start delayed until day 13 after start of anti-CTLA4, versus anti-CTLA4 alone", "result": "reduced tumor growth"},
      {"measurement": "intratumoral populations of neutrophils, macrophages and activated cytotoxic T-cells", "setting": "[13]; 10 mg/kg GC4419 with or without IR 15 Gy, flow cytometry, various time points", "result": "altered"},
      {"measurement": "sensitization of tumors to ionizing radiation (FIG. 6A)", "setting": "[13]; GC4419 3, 10 and 24 mg/kg with 15 Gy", "result": "sensitized tumors to ionizing radiation regardless of dose"},
      {"measurement": "tumor volumes", "setting": "[14]; 3 mg/kg or 10 mg/kg GC4419 added to anti-CTLA4, started at least 3 days after antibody", "result": "significant further decrease in tumor volumes"},
      {"measurement": "tumor volume (FIG. 5D)", "setting": "[14]; GC4419 10 mg/kg versus 3 mg/kg, with anti-CTLA4", "result": "improved results over a dose of 3 mg/kg"},
      {"measurement": "tumor volume (FIG. 5C)", "setting": "[14]; skipping GC4419 on days when anti-CTLA4 was administered", "result": "further improved the results, albeit slightly"},
      {"measurement": "Day 17 Tumor Volume, V", "setting": "[15]; mean, GC4419 24 mg/kg D11-15, RT 15 Gy D11", "result": "All sac'd at Day 13"},
      {"measurement": "tumor growth", "setting": "[15]; radiation plus GC4419 versus radiation alone", "result": "further tumor growth reduction"}
    ]}
  ]
}
